Counter-ions that a name gives are not always drawn.

The source of these data is US20110319392A1, “Thiazole Sulfonamide And Oxazole Sulfonamide Kinase Inhibitors” (priority 2009, published 2011).

One assay has as its target T1, EGFR (Homo sapiens, UniProt P00533).
T1 construct: made in house; host or cells: baculovirus expression system
As to the kind of experiment: EGFR substrate phosphorylation assay (HTRF). The class given is biochemical. The procedure, abridged:
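Baculovirus-expressed EGFR (0.8 nM) or ErbB2 (10 nM) in enzyme mix, preincubated 1 h at 20 °C with compound (0.00027–47.6 μM final), then 90 min at 20 °C with substrate mix of 20 μM ATP, 0.8 uM biotinylated Peptide C, MnCl2, MOPS pH 7.5. Phosphotyrosine by HTRF; pIC50 reported.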
A general note: In TR-FRET formats the signal depends on donor and acceptor labels being close together.

For a further assay, the system named is HN5 tumor cells. The assay can be described thus: Cell growth inhibition assay (CellTiter-Glo), HN5. The class given is cell-based, Human. To be noted: Homo sapiens, 72 h; 3 days incubation. As for the experimental part: (§1) Human breast tumor cells (BT474) were cultured in RPMI (Mediatech […]), containing 10% FBS (JRH Biosciences 12176) and 1% penicillin-streptomycin (Invitrogen 15140). Human head and neck tumor cells (HN5) were cultured in high glucose DMEM (Mediatech 50-013-PB) containing 10% FBS and 1% penicillin-streptomycin. Human colon tumor cells (Colo205) were cultured in RPMI (Mediatech 50-020-PB) containing 10% FBS and 1% penicillin-streptomycin. Human melanoma cancer cells (SK-MEL-28) were cultured in EMEM with nonessential amino acids (Mediatech 50-011-PB) containing 10% FBS, 1% sodium pyruvate (JT Baker 3354-04), and 1% penicillin-streptomycin. Human melanoma cancer cells (A375P F11s) were cultured in RPMI (Mediatech 50-020-PB) containing 10% FBS, 1% sodium pyruvate, and 1% penicillin-streptomycin. Human colon cancer cells (HT-29) were cultured in high glucose DMEM (Mediatech 50-013-PB) containing 10% FBS and 1% penicillin-streptomycin. Human melanoma cancer cells (SK-MEL-3) were cultured in McCoy's 5A (50-025-PB) containing 15% FBS, and 1% penicillin-streptomycin. All cell lines were maintained at 37° C. in a humidified 5% CO2, 95% air incubator. Cells were harvested using trypsin/EDTA (Invitrogen 25200), counted using a haemocytometer, and plated. For 96-well assays (using white full-area NUNC plates cat. #136102), cells were plated in 105 μL at the following densities (cells/well): HNS, 500; Colo 205, 500; SK-MEL-28, 500; A375P F11s, 500; HT-29, 500; SK-MEL-3, 500; and BT474, 3000. For 384-well assays (white full-area NUNC plates, cat. #781080), cells were plated in 48 μL at the following densities (cells/well): HNS, 500; Colo205, 500; SK-MEL-28, 500; A375P F11s, 500; HT-29, 500; SK-MEL-3, 500; and BT474, 2000.
(§2) The next day, compounds were diluted as follow: For 96-well assays, 13.5 μL of compound in DMSO were diluted using nine (9) serial 1:3 dilutions of 4.5 μL in 9 of DMSO. Medium (270 μL/well of RPMI with 10% FBS and 1% penicillin-streptomycin) was added to the plates. Aliquots (7 μL) were added to cells in the final assay giving a final DMSO concentration of 0.2%. For 384-well assays, 15 μL of compound in DMSO were diluted using nine (9) serial 1:3 dilutions of 5 μL in 10 μL of DMSO, followed by a further dilution of 5 μL of compound with 95 μL of medium, of which 2 μL were added to cells in the final assay giving a final DMSO concentration of 0.2%. Cells were incubated at 37° C., 5% CO2 for 3 days.
(§3) Total ATP was measured (as a surrogate estimate of cell number) using CellTiter-Glo® reagent (Promega G7571). Briefly, plates were removed from the incubator and allowed to equilibrate to room temperature for 30 minutes. CellTiter-Glo® (25 μL or 55 μL for 384-well or 96-well assays, respectively) reagent was added to each well and plates were shaken on an orbital plate shaker for 2 minutes. Plates were incubated without shaking for a further 30 minutes and read on an LJL Analyst GT reader in luminometer mode with an integration time of 0.5 seconds per well. Percent inhibition of cell growth was calculated relative to DMSO vehicle-treated control wells. Concentration of compound required to give 50% inhibition of vehicle-treated control cell growth (IC50) was interpolated using a 4-parameter fit for determining IC50 using the following equation: Y=A +((B−A)/(1+((C/X)̂D))) where […].
(In ATP-based viability assays light output follows the ATP content of the culture.)

In the next assay the test system is A375P F11s tumor cells. The assay can be described thus: Cell growth inhibition assay (CellTiter-Glo), A375P F11s. To be noted: Homo sapiens. It is filed as cell-based, Human. The method, then:
as §1, §2, §3

The test system of a further assay is HT-29 tumor cells. As to the kind of experiment: Cell growth inhibition assay (CellTiter-Glo), HT-29. The class given is cell-based, Human. To be noted: Homo sapiens. As for the experimental part: as §1, §2, §3

T1 sequence (P00533 25-1210): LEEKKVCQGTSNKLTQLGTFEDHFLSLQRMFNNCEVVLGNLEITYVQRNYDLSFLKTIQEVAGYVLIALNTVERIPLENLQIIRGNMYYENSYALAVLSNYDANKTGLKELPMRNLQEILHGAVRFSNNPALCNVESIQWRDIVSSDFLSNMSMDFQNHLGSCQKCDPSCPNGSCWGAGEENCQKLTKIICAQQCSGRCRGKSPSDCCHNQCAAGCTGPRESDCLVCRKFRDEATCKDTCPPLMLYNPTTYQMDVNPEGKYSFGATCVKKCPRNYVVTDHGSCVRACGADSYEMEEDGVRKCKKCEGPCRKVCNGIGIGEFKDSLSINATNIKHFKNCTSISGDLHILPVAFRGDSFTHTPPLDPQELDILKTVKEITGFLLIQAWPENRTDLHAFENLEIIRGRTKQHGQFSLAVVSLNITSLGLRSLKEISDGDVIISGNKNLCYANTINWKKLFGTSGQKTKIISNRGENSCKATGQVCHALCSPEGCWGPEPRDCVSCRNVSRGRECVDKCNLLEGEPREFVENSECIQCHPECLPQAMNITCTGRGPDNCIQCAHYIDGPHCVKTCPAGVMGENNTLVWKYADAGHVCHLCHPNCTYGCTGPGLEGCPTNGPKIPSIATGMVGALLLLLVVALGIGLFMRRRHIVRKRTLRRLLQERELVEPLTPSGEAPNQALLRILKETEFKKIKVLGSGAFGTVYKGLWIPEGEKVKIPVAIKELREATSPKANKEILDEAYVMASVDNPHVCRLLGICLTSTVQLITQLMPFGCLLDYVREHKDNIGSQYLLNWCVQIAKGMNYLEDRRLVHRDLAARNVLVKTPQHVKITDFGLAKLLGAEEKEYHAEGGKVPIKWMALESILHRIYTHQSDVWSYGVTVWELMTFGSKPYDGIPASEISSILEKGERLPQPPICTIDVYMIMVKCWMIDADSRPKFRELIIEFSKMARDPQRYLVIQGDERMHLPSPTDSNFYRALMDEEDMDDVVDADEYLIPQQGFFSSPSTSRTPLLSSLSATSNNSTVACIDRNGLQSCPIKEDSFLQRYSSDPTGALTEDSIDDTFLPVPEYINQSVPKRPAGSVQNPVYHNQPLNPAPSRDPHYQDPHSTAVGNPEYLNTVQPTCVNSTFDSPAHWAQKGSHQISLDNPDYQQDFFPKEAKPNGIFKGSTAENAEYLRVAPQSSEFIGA

Take `CCNc1nc(-c2cccc(NS(=O)(=O)c3c(F)cccc3F)c2)c(-c2ccnc(Nc3ccc(N4CCOCC4)nc3)n2)s1` [Example 152]: the half-inhibitory concentration (IC50) (commonly the concentration that gives 50% inhibition) at EGFR is 100 to 1000 nM; with HN5 tumor cells it was 100 to 1000 nM; in the assay with A375P F11s tumor cells it was less than 100 nM; with HT-29 tumor cells, less than 100 nM.
Consider `Nc1nc(-c2cccc(NS(=O)(=O)c3c(F)cccc3F)c2)c(-c2ccnc(Nc3ccc(N4CCOCC4)nc3)n2)s1` [Example 62], for which the 50% inhibitory concentration (IC50) against EGFR was 100 to 1000 nM; in the assay on HN5 tumor cells, 100 to 1000 nM; in the assay with A375P F11s tumor cells, less than 100 nM; with HT-29 tumor cells, 100 to 1000 nM.
Consider `CC(C)c1nc(-c2cccc(NS(=O)(=O)c3cccs3)c2)c(-c2ccnc(Nc3ccc(N4CCOCC4)nc3)n2)s1` [Example 51], for which the IC50 against EGFR was more than 1000 nM; with HN5 tumor cells, 100 to 1000 nM; with A375P F11s tumor cells it was less than 100 nM; with HT-29 tumor cells, less than 100 nM.
As to `CC(C)c1nc(-c2cc(F)c(F)c(NS(=O)(=O)c3cccc(F)c3)c2)c(-c2ccnc(Nc3ccc(N4CCN(CCF)CC4)c(F)c3)n2)s1` [Example 101], the IC50 was more than 1000 nM against EGFR, 100 to 1000 nM in the assay with HN5 tumor cells, 100 to 1000 nM with A375P F11s tumor cells and 100 to 1000 nM with HT-29 tumor cells.
For `CC(C)c1nc(-c2cccc(NS(=O)(=O)c3c(F)cccc3F)c2)c(-c2ccnc(Nc3ccc(OC4CCN(CCS(C)(=O)=O)CC4)c(F)c3)n2)s1` [Example 13, 2,6-Difluoro-N-{3-[5-(2-{[3-fluoro-4-({1-[2-(methylsulfonyl)ethyl]-4-piperidinyl}oxy)phenyl]amino}-4-pyrimidinyl)-2-(1-methylethyl)-1,3-thiazol-4-yl]phenyl}benzenesulfonamide hydrochloride], the IC50 against EGFR was 100 to 1000 nM; in the assay on HN5 tumor cells it was 100 to 1000 nM; with A375P F11s tumor cells, less than 100 nM; in the assay with HT-29 tumor cells it was 100 to 1000 nM.
For the compound `COc1cc(N2CCN(CCS(C)(=O)=O)CC2)c(C)cc1Nc1nccc(-c2sc(C(C)C)nc2-c2cccc(NS(=O)(=O)c3c(F)cccc3F)c2)n1` [Example 19], the IC50 on EGFR was less than 100 nM; with HN5 tumor cells, more than 1000 nM; in the assay with A375P F11s tumor cells, 100 to 1000 nM; with HT-29 tumor cells it was more than 1000 nM.
Take `COc1ccc(S(C)(=O)=O)cc1Nc1nccc(-c2sc(N3CCOCC3)nc2-c2cccc(NS(=O)(=O)c3c(F)cccc3F)c2F)n1` [Example 157]: the IC50 on EGFR is more than 1000 nM; in the assay on HN5 tumor cells, more than 1000 nM; with A375P F11s tumor cells, less than 100 nM; with HT-29 tumor cells, less than 100 nM.
With `CC(C)c1nc(-c2ccc(F)c(NS(=O)(=O)c3c(F)cccc3F)c2)c(-c2ccnc(Nc3ccncc3)n2)s1` [Example 102], the IC50 against EGFR is more than 1000 nM; in the assay on HN5 tumor cells, more than 1000 nM; in the assay with A375P F11s tumor cells, 100 to 1000 nM; with HT-29 tumor cells it was 100 to 1000 nM.
In the case of `CC(C)c1nc(-c2cccc(NS(=O)(=O)c3c(F)cccc3F)c2F)c(-c2ccnc(Nc3cnc(N4CCOCC4)c(F)c3)n2)s1` [Example 30, 2,6-Difluoro-N-{2-fluoro-3-[5-(2-{[5-fluoro-6-(4-morpholinyl)-3-pyridinyl]amino}-4-pyrimidinyl)-2-(1-methylethyl)-1,3-thiazol-4-yl]phenyl}benzenesulfonamide], the IC50 was more than 1000 nM against EGFR, less than 100 nM in the assay with HN5 tumor cells, less than 100 nM with A375P F11s tumor cells and 100 to 1000 nM in the assay on HT-29 tumor cells.
For `CS(=O)(=O)c1cccc(Nc2nccc(-c3sc(N4CCOCC4)nc3-c3cccc(NS(=O)(=O)c4c(F)cccc4F)c3F)n2)c1` [Example 130], the concentration for half-maximal inhibition (IC50) at EGFR is more than 1000 nM; with HN5 tumor cells it was 100 to 1000 nM; in the assay with A375P F11s tumor cells, less than 100 nM; in the assay with HT-29 tumor cells, less than 100 nM.
As for `CC(=O)N1CCN(c2ccc(Nc3nccc(-c4sc(C(C)C)nc4-c4cccc(NS(=O)(=O)c5ccc(F)cc5)c4)n3)cn2)CC1` [Example 10, N-{3-[5-(2-{[6-(4-Acetyl-1-piperazinyl)-3-pyridinyl]amino}-4-pyrimidinyl)-2-(1-methylethyl)-1,3-thiazol-4-yl]phenyl}-4-fluorobenzenesulfonamide], the concentration for half-maximal inhibition (IC50) on EGFR is more than 1000 nM; with HN5 tumor cells, more than 1000 nM; in the assay on A375P F11s tumor cells, less than 100 nM; in the assay on HT-29 tumor cells, 100 to 1000 nM.
